Laboratory results reported in patent US6465476B1, “Immuno-modulator exhibiting antimicrobial and anti-mycrobacterial activities, method for producing the same and pharmaceutical preparation” (priority 1997, dated 2002).
Where two headings read alike, the source gives them in different places.

Key:
[1] = system: white unbred mice; test: Toxicity on white unbred mice by Litchfild-Wilkokson's procedure; format: in vivo; settings: white unbred mice 18 to 20 g, sharp experiment
[2] = Storage stability; format: physicochemical
From the text: More precisely, isophonum is produced by boiling equimolecular amounts of isonicotinic acid hydrazide and 6-methyluracyl-5-sulfochloride in anhydrous acetonitrile. The samples of isophonum maintain their properties during the period of time of 3 years.

[3] = Example 2, patient D., bronchiectatic disease; format: in vivo, human; settings: daily dose 400 mg
Protocol: The patient was admitted to a clinic with a diagnosis “bronchiectatic disease”. Concomitant diseases were chronic tonsillitis, diffuse enlargement of thyroid approximately of the first or the second degree.
According to the protocol of clinical tests the patient was ordered the intake of isophonum for the periode of 30 days in a daily dose of 400 mg. On the 14th or 15th day of intake of the preparation the morning sputum discharge considerably diminished in quantity and changed in character from pussy to mucous, the cough ceased and the patient's general state of health and mood improved.

[4] = system: Kyp-4 strain of leprosy mycobacteria; test: Antileprous activity in mice infected by Shepard's procedure; format: in vivo, leprosy mycobacteria; male mice of the CBA line
From the text: Antileprous activity of isophonum as compared with that of diuciphonum was studied on male mice of the CBA line infected with the laboratory Kyp-4 strain of leprosy mycobacteria taken in an amount of 5000 and introduced intraplantedly by Shepard's procedure. The experiment lasted six months from the 7th of February to the […] 1996. Observed were 5 groups of mice with 15 mice in each group. All the animals were kept under the same conditions of the vivarium on a standard diat.
The first group (controls): during six months of the experiment the mice received 0.5 ml of a starch suspension through a probe five times a week. After six months the animals were killed through a cervical dislocation of backbone, the organs were subjected to a bacterioscopic investigation, no pathologic deviations characteristic of any of the groups were found. The bacteriscopic investigation of the infected site was carried out by grinding the mouse foot in 2 ml of 0.1 percent solution of albumin, making a smear from 0.01 ml of the suspenstion and painting it by Ziel-Nielson's procedure and counting the number of leprosy micobacteria in 60 fields of vision to determine the number of micobacteria per mouse in each group.

[5] = system: macrophages; test: Phagocytic activity of macrophages (clearance from blood); format: in vivo, mice; settings: 500 μg per mouse per os
From the text: The influence of the preparations in question on the phagocytic activity of macrophages was studid from clearence of the carcass in blood taken from the retroorbital sinus of mice that received the preparations per os. The results were estimated on the phagocytic index α (see Table 4).

[6] = system: pulmonary tuberculosis; test: Clinical study on patients with pulmonary tuberculosis; format: in vivo, human; settings: for B-lymphocytes / T-helpers / T-lymphocytes / T-suppressors / Th/Ts: pulmonary tuberculosis patients
From the text: The preparation of the present invention was also studied clinically on tuberculous patients. The age of the patients was under 30 years (6 persons) and under 35 years (2 persons).
The clincal forms of pulmonary tuberculosis in the patients tested were as follows:
infiltrative tuberculosis without cavities of decay and bacterioexcretion—2 persons;
infiltrative tuberculosis with decay and bacterioexcretion—4 persons;
disseminated pulmonary tuberculosis—2 people.
The length of preparation intake was 1 to 2 months. The dose was equal to 0.6 g a day.
The control group consisting of 5 persons with infiltrative pulmonary tuberculosis received conventional treatment including isoniazide. The tolerance for the preparation claimed was good. […] There was no change in functional indices of parenchymatous organs (liver, kidneys, pancreas). In 3 persons hospitalized with symptoms of intoxication the improvement of general physical and mental state was noted including normatization of body temperature, abatement of cough, decrease in amount of sputum excretion, improvement of appetite.

[7] = system: antibody-forming cells (AFC) in the spleen; test: Humoral immunity, localized-in-gel hemolysis, AFC accumulation in spleen of immunized mice; format: in vivo, hybrid mice F1 (CBA/C57BL6)
Protocol: The influence on humoral immunity was studied using the method of localized-in-gel hemolysis. […] On the 5th day the number of antibody-forming cells (AFC) in the spleen of the mice was calculated and the immune response stimulation index was determined as the ratio of AFC number in the test group to the AFC number in the control group. The respective data are represented in Table 2.

[8] = system: Tubazide-resistent H37Rv; format: in vivo, tuberculosis mycobacteria; mice of the CBA line; settings: for Damage index / Life duration / Weight of the lung: Tubazide-resistent H37Rv
[9] = system: tuberculosis mycobacteria H37Rv (USSR H37Rv); format: in vivo, tuberculosis mycobacteria; mice of the CBA line; settings: for Damage index / Life duration / Weight of the lung: USSR H37Rv
[10] = system: agent of leprosy (mycobacteria of leprosy)
[11] = after three months, 0.6 g a day
[12] = tuberculous patients, 0.6 g a day, 1 to 2 months
[13] = leprosy patients, after one month, 0.6 g daily
[14] = leprosy patients, after three months, 0.6 g daily
[15] = leprosy patients, before treatment

Cc1[nH]c(=O)[nH]c(=O)c1S(=O)(=O)NNC(=O)c1ccncc1.O [Isophonum, N-(6-methyl-2,4-dioxo-1,2,3,4-tetrahydro-5-pyrimidinsulfon)-N′-isonicotinoylhydrazide hydrate]
toxicity [1]: exceed 7000 mg/kg
period of time during which samples maintain their properties [2]: 3 years
day of considerable improvement of clinical status and general blood analysis [3]: 20 days
day of considerable improvement of immune status parameters [3]: 31 days
activity against the leprosy mycobacteria ([4]; 2.5 mg/kg): bactericide activity
Percentage of infected animals ([4]; after six months, isophonum dose 2.5 mg/kg): 0%
Phagocytic index [5]: 6.55 ± 0.06
stimulation of the phagocytic activity of macrophages [5]: 56%
Phagocytic index, percent of controls ([5]; controls 100%): (156%)
B-lymphocytes ([6]; after one month, 0.6 g a day): 12.0 ± 0.8
T-helpers ([6]; after one month, 0.6 g a day): 37.4 ± 0.3
T-lymphocytes ([6]; after one month, 0.6 g a day): 48.5 ± 1.0
T-suppressors ([6]; after one month, 0.6 g a day): 20.0 ± 0.6
Th/Ts ([6]; after one month, 0.6 g a day): 1.85 ± 0.2
B-lymphocytes [6, 11]: 11.0 ± 0.6
T-helpers [6, 11]: 55.5 ± 2.0
T-lymphocytes [6, 11]: 54.8 ± 0.7
Th/Ts [6, 11]: 2.75 ± 0.04
B-lymphocytes ([6]; before treatment): 9.0 ± 0.3
T-helpers ([6]; before treatment): 28.6 ± 0.2
T-lymphocytes ([6]; before treatment): 42.2 ± 0.1
T-suppressors ([6]; before treatment): 28.0 ± 1.2
Th/Ts ([6]; before treatment): 1.0 ± 0.02
signs of toxication [6, 12]: No one of the patients exhibeted clinical, hematological signs of toxicaction
tolerance for the preparation [6, 12]: good
AFC-number in the spleen ([7]; 500 μg per mouse per os in starch suspension, 5th day after immunization): 2800 ± 200
Immune response stimulation index ([7]; 500 μg per mouse per os, ratio of AFC test group to control group): 5.6
Damage index ([8]; 100 μg per mouse): 1.91 ± 0.18
Life duration ([8]; 100 μg per mouse): 35.2 ± 3.4
Weight of the lung ([8]; 100 μg per mouse): 493.4 ± 65.1
Damage index ([8]; 200 μg per mouse): 1.72 ± 0.24
Life duration ([8]; 200 μg per mouse): 37.1 ± 6.2
Weight of the lung ([8]; 200 μg per mouse): 478.2 ± 60.8
antituberculous action ([8]; mycobacteria resistent to tubazide and streptomycin): pronounced antituberculous action
Damage index ([9]; 100 μg per mouse): 1.91 ± 0.18
Life duration ([9]; 100 μg per mouse): 34.6 ± 4.8
Weight of the lung ([9]; 100 μg per mouse): 507.0 ± 48.4
Damage index ([9]; 200 μg per mouse): 1.81 ± 0.21
Life duration ([9]; 200 μg per mouse): 35.7 ± 5.2
Weight of the lung ([9]; 200 μg per mouse): 495.4 ± 56.1
antituberculous action ([9]; mouse, in vivo): pronounced antituberculous action
shortening of the length of stationary treatment of the leprous patients ([10]; human, in vivo): two-fold
tolerability, side effects ([10]; human, in vivo): well tolerable, has no side effects
time after which the agent of leprosy disappeared in scrapes of nasal mucosa ([10]; leprosy patients, 0.6 g daily): 3 months
B-lymphocytes [10, 13]: 10.0 ± 0.2
T-helpers [10, 13]: 28.2 ± 0.3
T-lymphocytes [10, 13]: 43.4 ± 0.7
T-suppressors [10, 13]: 20.0 ± 0.4
Th/Ts (immunoregulatory index) [10, 13]: 1.4
B-lymphocytes [10, 14]: 11.4 ± 0.4
T-helpers [10, 14]: 48.4 ± 1.2
T-lymphocytes [10, 14]: 60.2 ± 0.9
T-suppressors [10, 14]: 21.2 ± 0.4
Th/Ts (immunoregulatory index) [10, 14]: 2.3 ± 0.1
B-lymphocytes [10, 15]: 8.4 ± 0.2
T-helpers [10, 15]: 20.2 ± 0.2
T-lymphocytes [10, 15]: 28.6 ± 0.1
T-suppressors [10, 15]: 20.4 ± 0.3
Th/Ts (immunoregulatory index) [10, 15]: 1.0
